{"source": "patent US20230190857A1", "about": "“PEPTIDE WITH AMIDATED CARBOXY TERMINUS HAVING MELANOGENESIS INHIBITORY ACTIVITY AND COMPOSITION COMPRISING SAME” (RUBY CROWN CO. LTD., priority 2018, published 2023)", "key": {"B16-F10 cells [1]": {"test_system": "B16-F10 cells", "experiment": "Melanogenesis inhibitory activity (melanin content) in B16-F10 cells stimulated with α-MSH", "assay_type": "cell-based, murine", "settings": "for melanogenesis inhibitory effect of short peptides (melanin content): peptide 30 μM to 100 μM, FIG. 4a; for melanogenesis inhibitory effect of glycine derivatives (melanin content): various concentrations, FIG. 5a", "procedure": "(§1) Cells were cultured in a humidified incubator at 37° C. and 5% CO2. Murine melanoma B16-F10 cell lines were cultured in Dulbecco' Modified Eagle Medium containing 10% fetal bovine serum and antibiotics (100 U/mL of penicillin, 0.1 mg/mL of streptomycin and 0.25 μg/mL of amphotericin B), which were purchased from the American Type Culture Collection (Manassas, Va., USA). A human epidermal melanocyte (HEM), derived from a pigmented human neonatal foreskin, was purchased from Cascade Biologics (Portland, Oreg., USA) and cultured in medium 254 containing human melanocyte growth supplements (Cascade Biologics) and antibiotics.\n(§2) A melanin formation inhibitory effect of the peptide to be analyzed was confirmed by using B16-F10 cell lines and HEM. The B16-F10 cells were treated with test peptides at various concentrations and stimulated for 72 hours by using 100 nM of α-MSH. Hexapeptide B6 (Phe-Ser-His-His-Leu-Gly-NH2) (SEQ ID NO: 20), p-coumaric acid and arbutin were used as a control group. A level of extracellular melanin was measured by using a conditioned medium in which cells were previously cultured. Intracellular melanin was extracted at 60° C. for 60 minutes by using 1.0 M NaOH. A content of melanin was spectroscopically measured by measuring absorbance at 475 nm and resultant values were normalized with regard to a total protein content of cells by using Bio-Rad DC assay."}, "[2]": {"test_system": "human epidermal melanocyte (HEM)", "experiment": "Melanogenesis inhibitory activity (intracellular and extracellular melanin) in HEMs stimulated with α-MSH", "assay_type": "cell-based", "settings": "FIG. 6a", "procedure": "as §1\nas §2, with “assay. […]” for “assay.”"}, "[3]": {"test_system": "human epidermal melanocyte (HEM)", "experiment": "Cell viability, MTT assay, HEMs", "assay_type": "cell-based", "settings": "FIG. 6b", "procedure": "(§3) Cell viability was measured by using a 3-(4,5-dimethylthiazol-2-yl)-2,5-diphenyltetrazolium bromide (MTT) assay. B16-F10 cell lines were treated with test peptides at various concentrations for 72 hours. The cells were washed with PBS and cultured in 100 μl of culture fluid, to which 1 mg/mL of MTT (Amresco, Solon, Ohio, USA) was added, for three hours. After that, the culture fluid was removed therefrom and formazan accumulated inside the cells was extracted with 100 μl of dimethyl sulfoxide (DMSO). Absorbance of the extracted solution was measured at 595 nm by using SPECTROstar Nano microplate reader (BMG LABTECH GmbH, Ortenberg, Germany).\n(§4) After the B16-F10 cells and HEM were treated with the peptides of Examples 1 to 4 according to the same method, cell viability was measured and the results thereof were summarized in FIGS. 1b, 2b, 3b, 4b, 5b, 6b and 7a respectively."}, "B16-F10 cells [4]": {"test_system": "B16-F10 cells", "experiment": "Cell viability, MTT assay, B16-F10 cells", "assay_type": "cell-based, murine", "settings": "up to 300 μM, FIG. 7a", "procedure": "as §3, §4"}, "tyrosinase (TYR) [5]": {"test_system": "tyrosinase (TYR)", "experiment": "TYR activity assay in cell-free extract of treated B16-F10 cells", "assay_type": "cell-based, murine", "settings": "treated 60 minutes, then 100 nM α-MSH 24 hours, FIG. 8a", "procedure": "B16-F10 cells were treated with glycinamide-HCl for 60 minutes and stimulated for 24 hours by using 100 nM of α-MSH. The cells were dissolved in 10 mM of cold Tris-HCl buffer solution (pH 7.4) containing 120 mM of sodium chloride, 25 mM of potassium chloride, 2.0 mM of ethylene glycol tetraacetic acid, 1.0 mM of ethylenediaminetetraacetic acid, 0.5% triton X-100, protease inhibitor cocktail (Roche, Mannheim, Germany). Cytolysate was centrifuged at 13,000×g at 4° C. for 15 minutes to obtain a cell-free extract therefrom. TYR activity was measured by using L-tyrosine and L-3,4-dihydroxyphenylalanine. A reaction mixture (200 μL) includes 100 mM of sodium phosphate (pH 6.8), 1.0 mM of L-tyrosine, 42 μM of L-3,4-dihydroxy phenylalanine and a cell-free extract (40 μg of protein), which was cultured at 37° C. A change in absorbance was measured at 475 nm by using Spectrostar Nano microplate reader."}, "tyrosinase (TYR) [6]": {"test_system": "tyrosinase (TYR)", "experiment": "Western blotting, TYR protein level in B16-F10 cells", "assay_type": "cell-based, murine", "settings": "both in the presence and in the absence of α-MSH, FIG. 8b", "procedure": "(§5) Western blotting was performed as described in a document [Study on phenolic compounds and novel peptides inhibiting UVB- and PM10-induced MMP1 expression and melanogenesis in skin cells. PhD Thesis 2017. Kyungpook National University, Korea]. B16-F10 cells were dissolved in 10 mM of cold Tris-HCl buffer solution (pH 7.2) containing 150 mM of NaCl, 5 mM of EDTA, 0.1% sodium dodecyl sulfate (SDS), 1% triton X-100, 1% deoxycholate, 1 mM of phenylmethylsulphonyl fluoride and protease inhibitor cocktail (Roche). A part of cytolysate (30 μg of protein) was mixed with Laemmli sample buffer, then heated at 95° C. for five minutes to be denaturalized, and then was subject to electrophoresis in 10% SDS-polyacrylamide gel. After the electrophoresis, protein was transferred from gel to polyvinylidene difluoride membrane (Amersham Pharmacia, Little Chalfont, UK). Primary antibodies for TYR, TYRP1, DCT, MITF and @-actin were purchased from Santa Cruz Biotechnology (Santa Cruz, Calif., USA). Primary antibodies for CREB, phospho-CREB (Ser133), extracellular signal-regulated kinase (ERK) and phospho-ERK (Thr202/Tyr204) were purchased from Cell Signaling (located in Danvers, Mass., USA). […] A protein band was visualized by using picoEPD Western Reagent kit (Elpis-Biotech, Daejeon, South Korea), and a depth of image was analyzed by using National Institutes of Health ImageJ program."}, "[7]": {"test_system": "tyrosinase-related protein 1 (TYRP1)", "experiment": "Western blotting, TYRP1 protein level in B16-F10 cells", "assay_type": "cell-based, murine", "settings": "both in the presence and in the absence of α-MSH, FIG. 8b", "procedure": "as §5"}, "[8]": {"test_system": "dopachrometautomerase (DCT)", "experiment": "Western blotting, DCT protein level in B16-F10 cells", "assay_type": "cell-based, murine", "settings": "both in the presence and in the absence of α-MSH, FIG. 8b", "procedure": "as §5"}, "[9]": {"test_system": "cAMP-responsive element binding protein (CREB)", "experiment": "Western blotting, phosphorylation of CREB in B16-F10 cells", "assay_type": "cell-based, murine", "settings": "stimulated with α-MSH, FIG. 9a", "procedure": "as §5, with “program. […]” for “program.”"}, "[10]": {"test_system": "extracellular signal-regulated kinase (ERK)", "experiment": "Western blotting, phosphorylation of ERK in B16-F10 cells", "assay_type": "cell-based, murine", "settings": "stimulated with α-MSH, FIG. 9a", "procedure": "as §5, with “program. […]” for “program.”"}, "[11]": {"test_system": "microphthalmia-associated transcription factor (MITF)", "experiment": "Western blotting, MITF protein level in B16-F10 cells", "assay_type": "cell-based, murine", "settings": "stimulated with α-MSH, FIG. 9b", "procedure": "as §5, with “program. […]” for “program.”"}}, "note": "“Also recorded” adds a separate entry of the source. Ends that are not written are not given here. Peptide text beside a SMILES is read from it.", "data": [{"molecule": "Arg-Trp-Gly-NH2 [E7]", "values": [{"measurement": "melanogenesis inhibitory effect of short peptides (melanin content)", "setting": "B16-F10 cells [1]; 100 nM α-MSH, 72 hours", "value": "melanogenesis inhibitory activity higher than that of other tripeptides"}]}, {"molecule": "NCC(N)=O", "note": "[G1, glycinamide]", "values": [{"measurement": "melanogenesis inhibitory effect of glycine derivatives (melanin content)", "setting": "B16-F10 cells [1]; 100 nM α-MSH, 72 hours", "value": "maintains anti-melanogenesis activity"}, {"measurement": "increase in content of intracellular and extracellular melanins in HEMs", "setting": "[2]", "value": "weakened"}, {"measurement": "HEMs cell viability / cytotoxicity", "setting": "[3]", "value": "almost no cytotoxicity"}]}, {"molecule": "Leu-Trp-Gly-NH2 [E6]", "values": [{"measurement": "melanogenesis inhibitory effect of short peptides (melanin content)", "setting": "B16-F10 cells [1]; 100 nM α-MSH, 72 hours", "value": "melanogenesis inhibitory activity higher than that of other tripeptides"}]}, {"molecule": "NCC(=O)O", "note": "[free glycine, glycine, reference compound]", "values": [{"measurement": "melanogenesis inhibitory effect of glycine derivatives (melanin content)", "setting": "B16-F10 cells [1]; 100 nM α-MSH, 72 hours", "value": "no activity"}]}, {"molecule": "NC(=O)CNC(=O)[C@@H](N)Cc1c[nH]c2ccccc12", "note": "[F1, Trp-Gly-NH2] (H-Trp-Gly-NH2)", "values": [{"measurement": "HEMs cell viability / cytotoxicity", "setting": "[3]", "value": "almost no cytotoxicity"}]}, {"molecule": "Cl.NCC(N)=O", "note": "[glycinamide-HCl]", "values": [{"measurement": "level of intracellular and extracellular melanins", "setting": "B16-F10 cells [1]; 25-100 μM, cells stimulated with α-MSH, FIG. 7b", "value": "reduced"}, {"measurement": "cytotoxicity in B16-F10 cells", "setting": "B16-F10 cells [4]", "value": "did not cause any cytotoxicity"}, {"measurement": "TYR activity increased by α-MSH", "setting": "tyrosinase (TYR) [5]", "value": "significantly weakened"}, {"measurement": "protein level of TYR", "setting": "tyrosinase (TYR) [6]", "value": "significantly reduced"}, {"measurement": "protein level of TYRP1", "setting": "[7]", "value": "significantly reduced"}, {"measurement": "protein level of DCT", "setting": "[8]", "value": "significantly reduced"}, {"measurement": "phosphorylation of CREB", "setting": "[9]", "value": "inhibited"}, {"measurement": "phosphorylation of ERK", "setting": "[10]", "value": "did not affect"}, {"measurement": "level of MITF expression increased by α-MSH", "setting": "[11]", "value": "weakened"}]}, {"molecule": "CC(C)C[C@H](NC(=O)[C@@H](N)CCCNC(=N)N)C(=O)N[C@@H](Cc1c[nH]c2ccccc12)C(=O)NCC(N)=O", "note": "[D5, Arg-Leu-Trp-Gly-NH2] (H-RLWG-NH2)", "values": [{"measurement": "HEMs cell viability / cytotoxicity", "setting": "[3]", "value": "almost no cytotoxicity"}]}, {"molecule": "Phe-Trp-Gly-NH2 [E5]", "values": [{"measurement": "melanogenesis inhibitory effect of short peptides (melanin content)", "setting": "B16-F10 cells [1]; 100 nM α-MSH, 72 hours", "value": "melanogenesis inhibitory activity higher than that of other tripeptides"}, {"measurement": "increase in content of intracellular and extracellular melanins in HEMs", "setting": "[2]", "value": "weakened"}]}, {"molecule": "Phe-Arg-Trp-Gly (FRWG-NH2) [D9]", "values": [{"measurement": "melanogenesis inhibitory activity compared with p-coumaric acid and arbutin", "setting": "B16-F10 cells [1]; peptide 10-30 μM, 100 nM α-MSH, 72 hours, molar comparison, FIG. 3a", "value": "melanogenesis inhibitory activity at a concentration lower than that of p-coumaric acid and arbutin; also recorded: the most powerful melanogenesis inhibitory effect"}]}, {"molecule": "N=C(N)NCCC[C@H](N)C(=O)N[C@@H](Cc1ccccc1)C(=O)N[C@@H](Cc1c[nH]c2ccccc12)C(=O)NCC(N)=O", "note": "[D3, Arg-Phe-Trp-Gly-NH2] (H-RFWG-NH2)", "values": [{"measurement": "HEMs cell viability / cytotoxicity", "setting": "[3]", "value": "almost no cytotoxicity"}]}, {"molecule": "Phe-Ser-His-His-Leu-Gly-NH2 (FSHHLG-NH2) [Hexa-peptide B6, reference compound]", "values": [{"measurement": "melanogenesis inhibitory effect of individual tetrapeptides (melanin content)", "setting": "B16-F10 cells [1]; peptide 30 μM and 100 μM, 100 nM α-MSH, 72 hours, FIG. 2a", "value": "showed a melanogenesis inhibitory effect at 100 μM only"}]}]}
